Some test systems named below: NCI-H460; MOLT-4; SF-268; OVCAR-5; HL-60; OVCAR-3; TK-10; 786-0; SK-MEL-28; LOX IMVI; HCT-15; COLO 205; CAKI-1; NCI-H226; HCT-116.
Common to all, as to assay: growth of human tumour cells (NCI), 48 h

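Dose response: 5 concentrations. Exposure: 48 h. Format: 96-well plates. Endpoint: linear interpolation; highest concentration if not reached. GI50: concentration for 50% inhibition of growth.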 Active and inactive are the calls of the source. Rule as the data show it: active = GI50 up to about 1.1 µM and inactive = higher.

Turning to `CN(CCc1ccccn1)c1nc(=[N+](C)C)ss1`, the GI50 in the experiment with NCI-H460 was 46.3 µM (inactive); in the experiment on MOLT-4, > 100 µM (inactive); in the experiment with SF-268, > 100 µM (inactive); with OVCAR-5 it was > 100 µM (inactive); in the experiment on HL-60, > 100 µM (inactive); in the experiment with OVCAR-3 it was 66.8 µM (inactive). Moreover, the GI50 in the experiment on TK-10 was > 100 µM (inactive); with 786-0, > 100 µM (inactive); with SK-MEL-28, > 100 µM (inactive); with LOX IMVI it was > 100 µM (inactive); in the experiment on HCT-15, > 100 µM; with COLO 205, > 100 µM (inactive). Moreover, the GI50 in the experiment with CAKI-1 was > 100 µM (inactive).

For the compound `CCCCCCCCCC[C@@H](O)[C@@H]1CC[C@H]([C@H]2CC[C@@H]([C@@H](O)CCCCCCCCCC[C@H]3CC(CC(C)=O)C(=O)O3)O2)O1` (some centres not stated), the GI50 in the experiment with NCI-H460 was 15.7 µM (inactive); in the experiment with MOLT-4, 1.67 µM (inactive); with SF-268, 1.62 µM (inactive); with OVCAR-5, 18 µM (inactive); in the experiment on HL-60, < 0.01 µM (active); with NCI-H226, 3.09 µM (inactive). The GI50 in the experiment with OVCAR-3 was 0.171 µM (active); in the experiment on HCT-116, 1.18 µM (inactive); in the experiment on TK-10 it was 12.6 µM (inactive); with 786-0 it was 11.4 µM (inactive); with SK-MEL-28, 9.35 µM (inactive); in the experiment with LOX IMVI, 10.2 µM (inactive). In addition, the values for the GI50 with HCT-15, with COLO 205 and in the experiment on CAKI-1 were 4.55 µM, 13.4 µM (inactive) and 16.7 µM (inactive), respectively.

Take `Cn1c(C2CCCc3c2c2ccccc2n3C)cc2ccccc21` (configuration not stated): the GI50 was 125 µM (inactive) in the experiment on NCI-H460; 89.5 µM (inactive) with MOLT-4; 110 µM (inactive) with SF-268; 136 µM (inactive) in the experiment with OVCAR-5; 65.5 µM (inactive) in the experiment on HL-60; 216 µM (inactive) in the experiment with NCI-H226. Besides, the GI50 is 36.2 µM (inactive) in the experiment on OVCAR-3; 142 µM (inactive) with HCT-116; > 318 µM (inactive) with TK-10; > 318 µM (inactive) in the experiment on 786-0; 114 µM (inactive) in the experiment on SK-MEL-28; 130 µM (inactive) in the experiment on LOX IMVI. The results for the GI50 in the experiment with HCT-15, with COLO 205 and in the experiment with CAKI-1 were 43.1 µM, 140 µM (inactive) and 115 µM (inactive), respectively.

On to `C=CCN1C(=O)C(=O)N(CC=C)C(=O)C1=O`, for which the GI50 in the experiment on NCI-H460, in the experiment with MOLT-4, with SF-268, in the experiment on OVCAR-5, with HL-60 and in the experiment on NCI-H226 was > 100 µM (inactive) each time. The GI50 was > 100 µM (inactive) with OVCAR-3; > 100 µM (inactive) in the experiment on HCT-116; > 100 µM (inactive) in the experiment with TK-10; > 100 µM (inactive) in the experiment with 786-0; > 100 µM (inactive) in the experiment with LOX IMVI; > 100 µM in the experiment with HCT-15. Moreover, the GI50 in the experiment on COLO 205 and in the experiment on CAKI-1 was > 100 µM (inactive) in each case.

Regarding `COC(=O)/C(C#N)=C1\CCC(O)N1` (configuration not stated), the GI50 with NCI-H460, in the experiment on MOLT-4, in the experiment on SF-268, with OVCAR-5, with HL-60 and in the experiment with NCI-H226 was > 100 µM (inactive) each time. The GI50 with OVCAR-3, in the experiment with HCT-116, in the experiment on TK-10, in the experiment on 786-0, in the experiment with SK-MEL-28 and with LOX IMVI was > 100 µM (inactive) each time. For the same compound, the GI50 in the experiment on COLO 205 and with CAKI-1 was > 100 µM (inactive) each time.

With `C/C(=N/NC(N)=S)C(CN(C)C)C(C1=C(O)c2ccccc2OC1)c1ccccc1` (configuration not stated), the GI50 in the experiment with NCI-H460, in the experiment with MOLT-4, with SF-268, in the experiment with OVCAR-5, with HL-60 and with NCI-H226 was > 100 µM (inactive) throughout. Besides, the GI50 with OVCAR-3, in the experiment on HCT-116, with TK-10, in the experiment with 786-0, with SK-MEL-28 and in the experiment on LOX IMVI was > 100 µM (inactive) in each case. Also, the GI50 in the experiment on HCT-15 was > 100 µM; in the experiment with COLO 205, > 100 µM (inactive); in the experiment with CAKI-1, > 100 µM (inactive).

For the compound `O=C(O)C1CCC(=O)N1C(=O)C(Cl)c1ccccc1` (configuration not stated), the GI50 in the experiment on NCI-H460, with MOLT-4, with SF-268, in the experiment with OVCAR-5, with HL-60 and in the experiment with NCI-H226 was > 100 µM (inactive) in each case. Moreover, the GI50 in the experiment on OVCAR-3, with HCT-116, in the experiment on TK-10, with 786-0, in the experiment on SK-MEL-28 and with LOX IMVI was > 100 µM (inactive) in each case. In addition, the GI50 was > 100 µM with HCT-15, > 100 µM (inactive) with COLO 205 and > 100 µM (inactive) with CAKI-1.

Take `Cc1c(C(=O)C/C(=N\O)C(=O)Nc2cc(Cl)c(Cl)cc2Cl)[n+]([O-])c2ccccc2[n+]1[O-]`: the GI50 in the experiment on NCI-H460 was 12.8 µM (inactive); with MOLT-4 it was 13.3 µM (inactive); in the experiment on SF-268, 17.8 µM (inactive); in the experiment with OVCAR-5, 24.4 µM (inactive); in the experiment on HL-60, 16.1 µM (inactive); in the experiment on NCI-H226, 17 µM (inactive). The GI50 was 2.37 µM (inactive) with OVCAR-3; 4.85 µM (inactive) with HCT-116; 29.2 µM (inactive) in the experiment with TK-10; 22.2 µM (inactive) in the experiment on 786-0; 22.4 µM (inactive) in the experiment with SK-MEL-28; 6.65 µM (inactive) in the experiment with LOX IMVI. Moreover, the GI50 in the experiment on HCT-15 is 8.17 µM; in the experiment with COLO 205 it was 2.92 µM (inactive); in the experiment with CAKI-1, 34 µM (inactive).

Consider `CC/N=C(/C#N)NCC`, for which the GI50 in the experiment with NCI-H460, in the experiment on MOLT-4, with SF-268, in the experiment on OVCAR-5, with HL-60 and in the experiment with NCI-H226 was > 100 µM (inactive) each time. In addition, the GI50 in the experiment with OVCAR-3 is > 100 µM (inactive); in the experiment with HCT-116, > 100 µM (inactive); with TK-10, > 100 µM (inactive); in the experiment with 786-0 it was 63 µM (inactive); in the experiment with SK-MEL-28, > 100 µM (inactive); with LOX IMVI it was > 100 µM (inactive). Besides, the GI50 was 46.2 µM in the experiment with HCT-15, 99.3 µM (inactive) with COLO 205 and > 100 µM (inactive) with CAKI-1.

As for `Cc1c2c(ccc3ccccc32)c[n+]2ccccc12`, the GI50 in the experiment on NCI-H460 is > 10 µM (inactive); with MOLT-4, 6.59 µM (inactive); with SF-268, 2.01 µM (inactive); in the experiment on OVCAR-5, 55.7 µM (inactive); in the experiment on HL-60 it was 28.4 µM (inactive); in the experiment with NCI-H226 it was 5.3 µM (inactive). For the same compound, the GI50 is 2.27 µM (inactive) in the experiment with OVCAR-3; 21.8 µM (inactive) in the experiment with HCT-116; > 100 µM (inactive) in the experiment on TK-10; 10.1 µM (inactive) in the experiment on 786-0; 15.7 µM (inactive) in the experiment on SK-MEL-28; 86.9 µM in the experiment on HCT-15. The GI50 was 13 µM (inactive) with COLO 205 and > 100 µM (inactive) in the experiment with CAKI-1.

`Cc1nnc2n1N=C(CC(=O)c1ccc(O)cc1O)CN2N`: the GI50 with NCI-H460 was 38.7 µM (inactive); in the experiment with SF-268 it was > 100 µM (inactive); with OVCAR-5 it was > 100 µM (inactive); in the experiment with HL-60 it was 75.3 µM (inactive); in the experiment with HCT-116 it was 55.7 µM (inactive); in the experiment on TK-10 it was > 100 µM (inactive). The GI50 in the experiment with 786-0 is > 100 µM (inactive); in the experiment with SK-MEL-28, > 100 µM (inactive); in the experiment on LOX IMVI, 68.9 µM (inactive); with HCT-15, 15.5 µM; in the experiment on COLO 205, 19.2 µM (inactive); in the experiment with CAKI-1 it was > 100 µM (inactive).

Regarding `O=C(NC(=S)Nc1ccccc1)c1ccc([N+](=O)[O-])cc1`, the GI50 in the experiment on NCI-H460 is 37.1 µM (inactive); in the experiment on MOLT-4 it was 71.8 µM (inactive); with SF-268, > 100 µM (inactive); in the experiment with OVCAR-5, 2.28 µM (inactive); in the experiment with HL-60, 36.8 µM (inactive); with OVCAR-3, 92.5 µM (inactive). The GI50 in the experiment with HCT-116 was > 100 µM (inactive); with TK-10, > 100 µM (inactive); in the experiment on 786-0 it was > 100 µM (inactive); with SK-MEL-28, > 100 µM (inactive); in the experiment with LOX IMVI it was 84.1 µM (inactive); in the experiment on HCT-15, 38.5 µM. Also, the GI50 was 47.3 µM (inactive) in the experiment on COLO 205 and 73.8 µM (inactive) in the experiment with CAKI-1.

Take `COc1ccc(C(=O)Nc2ccccc2C#N)cc1`: the GI50 is > 100 µM (inactive) in the experiment with NCI-H460; > 100 µM (inactive) with SF-268; > 100 µM (inactive) in the experiment with OVCAR-5; 54.6 µM (inactive) in the experiment with HL-60; > 100 µM (inactive) with OVCAR-3; > 100 µM (inactive) with HCT-116. Besides, the GI50 in the experiment on TK-10 was > 100 µM (inactive); in the experiment on 786-0, > 100 µM (inactive); with SK-MEL-28, > 100 µM (inactive); with LOX IMVI it was > 100 µM (inactive); in the experiment with HCT-15, > 100 µM; with COLO 205 it was > 100 µM (inactive). The GI50 in the experiment with CAKI-1 was > 100 µM (inactive).

For `COc1ccc(C2[C@@H](Cl)C(=O)N2c2ccc(OC)cc2)cc1` (some centres not stated), the GI50 in the experiment with NCI-H460 was 51.4 µM (inactive); in the experiment with MOLT-4, 35.9 µM (inactive); with SF-268 it was > 100 µM (inactive); in the experiment with OVCAR-5, > 100 µM (inactive); in the experiment on HL-60, 20.4 µM (inactive); with NCI-H226, > 100 µM (inactive). Moreover, the GI50 in the experiment with OVCAR-3 was 93.1 µM (inactive); in the experiment on HCT-116 it was 18.6 µM (inactive); with TK-10, > 100 µM (inactive); with 786-0 it was 36.6 µM (inactive); in the experiment with SK-MEL-28, > 100 µM (inactive); in the experiment with COLO 205, > 100 µM (inactive). Moreover, the GI50 in the experiment on CAKI-1 was 30.4 µM (inactive).

Values taken from ChEMBL document CHEMBL1201862, “PubChem BioAssay data set” (2004).
